Measured values reported in patent publication US5025099A, “(3-amino-1-propynyl)methylthiothiophene derivatives” (American Cyanamid Company, priority 1990, dated 1991).
Values joined by “and” are separate entries in the source; they are usually repeats but may differ in a detail not shown here. Equal values may be shown once. Where a name gives a salt, the structure may show the parent alone.

What was measured:
[1] = target: muscarinic cholinergic receptor; test: [^3 H] Quinuclidinyl Benzilate (^3 H-QNB) Binding Assay, rat cerebral cortex homogenate; conditions: pH 7.4
[2] = target: muscarinic cholinergic receptor; test: [^3 H]-Cis-methyldioxolane (^3 H-CD) Binding Assay (High Affinity), rat cerebral cortex homogenate; conditions: 1.0 nM ^3 H-CD, 25° C., 120 minutes
muscarinic sites = conditions: cited from earlier work
SDAT patients = conditions: compared to the anticholinesterase inhibitor physostigmine; cited from earlier work
[3] = rat cerebral cortex, 0.25 nM ^3 H-QNB, 25° C., hydrochloride
[4] = rat cerebral cortex, 0.25 nM ^3 H-QNB, 25° C.

Compound | IC50 [1, 3] | IC50 ([2]; pH 7.4, hydrochloride) | IC50 [1, 4] | IC50 ([2]; pH 7.4) | other results
CSc1sccc1C#CCN1CCCCC1 [1-[3-[2-(Methylthio)-3-thienyl]-2-propynyl]piperidine, hydrochloride] | 2200 nM | 32.5 nM |  |  | 
CSc1sccc1C#CCN1CCCCC1 [1-[3-[2-(Methylthio)-3-thienyl]-2-propynyl]piperidine] |  |  | 1140 nM | 31.1 nM | 
CSc1sccc1C#CCN1CCCC1 [1-[3-[2-(Methylthio)-3-thienyl]-2-propynyl]pyrrolidine, hydrochloride] | 810 nM |  |  |  | 
CSc1sccc1C#CCN1CCCC1 [1-[3-[2-(Methylthio)-3-thienyl]-2-propynyl]pyrrolidine] |  |  | 920 nM | 31 nM | 
CSc1ccsc1C#CCN1CCCCC1 [1-[3-[3-(Methylthio)-2-thienyl]-2-propynyl]piperidine, hydrochloride] | 2100 nM | 44 nM |  |  | 
CSc1ccsc1C#CCN1CCCCC1 [1-[3-[3-(Methylthio)-2-thienyl]-2-propynyl]piperidine] |  |  | 1970 nM | 122 nM | 
CSc1ccsc1C#CCN1CCCC1 [1-[3-[3-(Methylthio)-2-thienyl]-2-propynyl]pyrrolidine, hydrochloride] | 1870 nM | 44 nM |  |  | 
CSc1ccsc1C#CCN1CCCC1 [1-[3-[3-(Methylthio)-2-thienyl]-2-propynyl]pyrrolidine] |  |  | 1380 nM | 16 nM | 
CSc1cscc1C#CCN1CCCCC1 [1-[3-[4-(Methylthio)-3-thienyl]-2-propynyl]piperidine] |  |  | 5350 nM and 5880 nM | 998 nM and 530 nM | 
CSc1cscc1C#CCN1CCCC1 [1-[3-[4-(Methylthio)-3-thienyl]-2-propynyl]pyrrolidine, hydrochloride] | 2270 nM | 110 nM |  |  | 
CSc1cscc1C#CCN1CCCC1 [1-[3-[4-(Methylthio)-3-thienyl]-2-propynyl]pyrrolidine] |  |  | 3340 nM | 366 nM | 
CC(=O)N(C)C(C)C#CCN1CCCC1 (stereo not shown) [BM-5, N-methyl-N-(1-methyl-4-pyrrolidino-2-butynyl)acetamide] |  |  |  |  | activity at muscarinic sites (muscarinic sites; Eur. J. Med. Chem., 1982, 17, 317): antagonist at some muscarinic sites while being an agonist at most others; postsynaptic cholinergic activity (muscarinic sites; postsynaptic): postsynaptic partial cholinergic agonist; presynaptic cholinergic activity (muscarinic sites; presynaptic): presynaptic cholinergic antagonist
CSc1sccc1C#CC[N+](C)(C)C [N,N,N-Trimethyl-3-[2-(methylthio)-3-thienyl]-2-propyn-1-aminium, iodide] |  |  | 3440 nM | 52.3 nM | 
CSc1ccsc1C#CC[N+](C)(C)C [N,N,N-Trimethyl-3-[3-(methylthio)-2-thienyl]-2-propyn-1-aminium, iodide] |  |  | 5980 nM | 5.92 nM | 
CSc1cscc1C#CC[N+](C)(C)C [N,N,N-Trimethyl-3-[4-(methylthio)-3-thienyl]-2-propyn-1-aminium, iodide] |  |  |  | 121 nM | IC50 [1]: 9050 nM
CSc1sccc1C#CCN(C)C [N,N-Dimethyl-3-[2-(methylthio)-3-thienyl]-2-propyn-1-amine, hydrochloride] | 23300 nM | 969 nM |  |  | 
CSc1sccc1C#CCN(C)C [N,N-Dimethyl-3-[2-(methylthio)-3-thienyl]-2-propyn-1-amine] |  |  | 21400 nM | 942 nM | 
CSc1ccsc1C#CCN(C)C [N,N-Dimethyl-3-[3-(methylthio)-2-thienyl]-2-propyn-1-amine, hydrochloride] | 40400 nM | 1240 nM |  |  | 
CSc1ccsc1C#CCN(C)C [N,N-Dimethyl-3-[3-(methylthio)-2-thienyl]-2-propyn-1-amine] |  |  | 35000 nM | 1120 nM | 
CSc1cscc1C#CCN(C)C [N,N-Dimethyl-3-[4-(methylthio)-3-thienyl]-2-propyn-1-amine, hydrochloride] | 67500 nM | 1230 nM |  |  | 
CSc1cscc1C#CCN(C)C [N,N-Dimethyl-3-[4-(methylthio)-3-thienyl]-2-propyn-1-amine] |  |  | 239000 nM | 4830 nM | 
COC(=O)C1=CCCN(C)C1 [arecoline] |  |  |  |  | improvement in SDAT patients (SDAT patients): more-consistent improvement
